This experiment deals with T1, Tumor necrosis factor (Mus musculus) (UniProt P06804).
T1 sequence (whole entry): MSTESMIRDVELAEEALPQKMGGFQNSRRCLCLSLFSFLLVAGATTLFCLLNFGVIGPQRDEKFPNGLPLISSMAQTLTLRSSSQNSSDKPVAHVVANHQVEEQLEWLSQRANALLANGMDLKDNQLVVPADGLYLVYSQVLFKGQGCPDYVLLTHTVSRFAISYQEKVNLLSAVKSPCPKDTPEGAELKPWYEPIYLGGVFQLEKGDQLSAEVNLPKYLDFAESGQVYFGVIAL
The experiment in a line: Inhibition of TNFalpha in LPS-stimulated mouse RAW264.7 cells at 10 uM after 2 hrs treated after 14 hrs of LPS challenge by FACS analysis. It counts as cell-based. For orientation: Flow cytometry measures light scatter and fluorescence of single cells or particles in a stream.
For `c1ccc(-n2ncc3c(NCCN4CCCCC4)ncnc32)cc1`, the inhibition (in general, the relative decrease from the control value, in per cent) was determined as 45.8%.
For `NC(=O)c1cc(-c2csc(C3COc4ccccc4O3)n2)ccc1OCc1ccccc1` (stereo unspecified), the inhibition was 52.6%.
In turn, `O=C1NC(=O)N(c2ccccc2)C(=O)/C1=C\c1ccccc1OCc1ccccc1Cl` gave an inhibition of 47.9%.
Take `O=C1NC(=O)N(c2ccc3c(c2)OCO3)C(=O)/C1=C\c1cn(Cc2ccccc2Cl)c2ccccc12`: the inhibition was found to be 54.6%.
`Cc1cccc(N2C(=O)NC(=O)/C(=C/c3ccc(-c4ccc(C(=O)O)c(Cl)c4)o3)C2=O)c1` had an inhibition of 64%.
`O=c1cc(-c2ccccc2)oc2cc(O)c(O)c(O)c12`: the inhibition turned out to be 71.3%.

(Values after ChEMBL document CHEMBL1268826, “Discovery of the inhibitors of tumor necrosis factor alpha with structure-based virtual screening” (Bioorg Med Chem Lett, 2010).)
